Test results: patent publication US20240067631A1, “PYRAZOLE DERIVATIVES USEFUL AS NAMPT MODULATORS” (Cytokinetics, Inc., priority 2020, published 2024)

Target: human NAMPT (Homo sapiens (Human), UniProt P43490)
Test: Human recombinant enzyme assay (NMN fluorescence biochemical assay)
Settings: 6 nM human NAMPT, 60 min; for AC1.4 Human: concentration of compound that generates 40% higher activity over basal; for EC50: concentration that gives half-maximal activation
Procedure: Compounds described herein were assayed for their ability to stimulate the synthesis of nicotinamide mononucleotide (NMN) by the enzyme NAMPT. The human recombinant enzyme assay measures the activation of the enzyme activity by compounds using recombinant enzyme and substrates in a buffered cell-free system. The assay conditions closely mimic cellular environments. Dose responses were measured using an assay to detect the formation of nicotinamide mono-nucleotide. All experiments were performed in the 384-well format. Generally, 0.5 μL of DMSO containing varying concentrations of the test compound was mixed with 10 μL of the enzyme reagent solution. Enzyme reactions were initiated with the addition of 10 μL of a solution containing the substrates. The final assay conditions were as follows: 6 nM human NAMPT, 2.5 mM ATP, […] in 50 mM HEPES, pH 7.2, 1 mM DTT, 1 mM CHAPS 50 mM NaCl, 100 mM MgCl2. Following an incubation of 60 min at ambient temperature, 10 μL of 20% acetophenone in DMSO was added, followed by 10 μL of 2 M KOH and 40 μL of formic acid. The plates were read for fluorescence (Excitation/Emission=355 nm/460 nm) using an EnVision plate reader after 40 mins of incubation at ambient temperature. The potency measurements for compounds, are quantified and represented as AC1.4 (the concentration of compounds that generates 40% higher activity over basal) and EC50 (concentration of the compound that gives half-maximal activation).

Chain of human NAMPT (P43490 whole entry): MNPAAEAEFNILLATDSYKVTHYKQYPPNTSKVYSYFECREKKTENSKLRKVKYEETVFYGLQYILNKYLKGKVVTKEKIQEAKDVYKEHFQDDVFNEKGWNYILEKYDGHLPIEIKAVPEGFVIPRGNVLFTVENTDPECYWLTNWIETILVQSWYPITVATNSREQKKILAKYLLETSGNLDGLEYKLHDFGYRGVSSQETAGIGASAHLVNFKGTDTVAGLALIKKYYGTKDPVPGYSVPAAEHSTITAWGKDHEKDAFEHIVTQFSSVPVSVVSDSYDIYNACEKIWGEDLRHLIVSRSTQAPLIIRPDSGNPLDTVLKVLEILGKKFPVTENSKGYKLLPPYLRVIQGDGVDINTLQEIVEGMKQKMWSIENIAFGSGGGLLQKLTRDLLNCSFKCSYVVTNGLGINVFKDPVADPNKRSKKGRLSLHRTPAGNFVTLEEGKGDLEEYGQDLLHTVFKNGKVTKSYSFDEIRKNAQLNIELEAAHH

| SMILES | AC1.4 Human | EC50 |
| --- | --- | --- |
| Cc1nc(C(=O)N[C@H]2C[C@@H](c3ccccc3)C2)nc(NCCc2cn[nH]c2)c1C [Compound 135, 4-((2-(1H-pyrazol-4-yl)ethyl)amino)-5,6-dimethyl-N-((1s,3s)-3-phenylcyclobutyl)pyrimidine-2-carboxamide] | 3.7335 µM | 17.5 µM |
| Cc1nc(C(=O)NCc2ccccn2)nc(NCCc2cn[nH]c2)c1C [Compound 93, 4-((2-(1H-pyrazol-4-yl)ethyl)amino)-5,6-dimethyl-N-(pyridin-2-ylmethyl)pyrimidine-2-carboxamide] | 1.244 µM | 14.9 µM |
| Cc1nc(C(=O)N2CCCC2Cc2ccccc2)nc(NCCc2cn[nH]c2)c1C (stereo not drawn) [Compound 71, (4-((2-(1H-pyrazol-4-yl)ethyl)amino)-5,6-dimethylpyrimidin-2-yl)(2-benzylpyrrolidin-1-yl)methanone] | 0.5835 µM | 6.07 µM |
| Cc1nc(C(=O)N2CCC[C@@H]2c2ccccc2)nc(NCCc2cn[nH]c2)c1C [Compound 38, (R)-(4-((2-(1H-pyrazol-4-yl)ethyl)amino)-5,6-dimethylpyrimidin-2-yl)(2-phenylpyrrolidin-1-yl)methanone] | 0.1635 µM | 3.83 µM |
| Cc1nc(C(=O)NC(c2ccc(F)c(F)c2)c2nccn2C)nc(NCCc2cn[nH]c2)c1C (stereo not drawn) [Compound 134, 4-((2-(1H-pyrazol-4-yl)ethyl)amino)-N-((3,4-difluorophenyl)(1-methyl-1H-imidazol-2-yl)methyl)-5,6-dimethylpyrimidine-2-carboxamide] | 3.578 µM | 26.2 µM |
| CCCN(CCc1cn[nH]c1)c1nc(C(N)=O)nc(C)c1C [Compound 106, 4-((2-(1H-pyrazol-4-yl)ethyl)(propyl)amino)-5,6-dimethylpyrimidine-2-carboxamide] | 1.7115 µM | 32.7 µM |
| Cc1nc(C(=O)N[C@@H](C)c2cccs2)nc(NCCc2cn[nH]c2)c1C [Compound 8, (S)-4-((2-(1H-pyrazol-4-yl)ethyl)amino)-5,6-dimethyl-N-(1-(thiophen-2-yl)ethyl)pyrimidine-2-carboxamide] | 0.0325 µM | 0.182 µM |
| Cc1cccc([C@H]2CCCN2C(=O)c2nc(C)c(C)c(NCCc3cn[nH]c3)n2)n1 [Compound 131, (R)-(4-((2-(1H-pyrazol-4-yl)ethyl)amino)-5,6-dimethylpyrimidin-2-yl)(2-(6-methylpyridin-2-yl)pyrrolidin-1-yl)methanone] | 3.487 µM | 10.8 µM |
| Cc1nc(C(=O)N[C@@H](C)c2cccc(F)n2)nc(NCCc2cn[nH]c2)c1C [Compound 73, (S)-4-((2-(1H-pyrazol-4-yl)ethyl)amino)-N-(1-(6-fluoropyridin-2-yl)ethyl)-5,6-dimethylpyrimidine-2-carboxamide] | 0.6455 µM | 3.24 µM |
| Cc1nc(C(=O)N(C)[C@@H](C)c2ccccc2Cl)nc(NCCc2cn[nH]c2)c1C [Compound 29, (S)-4-((2-(1H-pyrazol-4-yl)ethyl)amino)-N-(1-(2-chlorophenyl)ethyl)-N,5,6-trimethylpyrimidine-2-carboxamide] | 0.1725 µM | 1.87 µM |
| Cc1nc(C(=O)NC(c2cccc(F)c2)c2ccccn2)nc(NCCc2cn[nH]c2)c1C (stereo not drawn) [Compound 46, 4-((2-(1H-pyrazol-4-yl)ethyl)amino)-N-((3-fluorophenyl)(pyridin-2-yl)methyl)-5,6-dimethylpyrimidine-2-carboxamide] | 0.2845 µM | 2.35 µM |
| Cc1nc(C(=O)N2CCC[C@@H]2c2cccc(F)c2)nc(NCCc2cn[nH]c2)c1Cl [Compound 148, (R)-(4-((2-(1H-pyrazol-4-yl)ethyl)amino)-5-chloro-6-methylpyrimidin-2-yl)(2-(3-fluorophenyl)pyrrolidin-1-yl)methanone] | >31 µM |  |
| Cc1nc(C(=O)N[C@H](C)c2cncc(F)c2)nc(NCCc2cn[nH]c2)c1C [Compound 109, (R)-4-((2-(1H-pyrazol-4-yl)ethyl)amino)-N-(1-(5-fluoropyridin-3-yl)ethyl)-5,6-dimethylpyrimidine-2-carboxamide] | 1.933 µM | 11.2 µM |
| Cc1nc(C(N)=O)nc(N(CCc2ccccc2)CCc2cn[nH]c2)c1C [Compound 1, 4-((2-(1H-pyrazol-4-yl)ethyl)(phenethyl)amino)-5,6-dimethylpyrimidine-2-carboxamide] | 0.003 µM | 0.131 µM |
| Cc1nc(C(=O)NC2(Cc3ccc(F)cc3Cl)CCOCC2)nc(NCCc2cn[nH]c2)c1C [Compound 85, 4-((2-(1H-pyrazol-4-yl)ethyl)amino)-N-(4-(2-chloro-4-fluorobenzyl)tetrahydro-2H-pyran-4-yl)-5,6-dimethylpyrimidine-2-carboxamide] | 1.072 µM | 8.35 µM |
| Cc1nc(C(=O)N2CCC[C@@H]2c2ccccn2)nc(NCCc2cn[nH]c2)c1C [Compound 126, (R)-(4-((2-(1H-pyrazol-4-yl)ethyl)amino)-5,6-dimethylpyrimidin-2-yl)(2-(pyridin-2-yl)pyrrolidin-1-yl)methanone] | 3.1455 µM | 13.4 µM |
| Cc1nc(C(=O)N[C@H](C)c2coc3ccccc23)nc(NCCc2cn[nH]c2)c1C [Compound 65, (R)-4-((2-(1H-pyrazol-4-yl)ethyl)amino)-N-(1-(benzofuran-3-yl)ethyl)-5,6-dimethylpyrimidine-2-carboxamide] | 0.4805 µM | 1.69 µM |
| Cc1nc(C(=O)NCC(O)(c2ccccc2)C(F)(F)F)nc(NCCc2cn[nH]c2)c1C (stereo not drawn) [Compound 122, 4-((2-(1H-pyrazol-4-yl)ethyl)amino)-5,6-dimethyl-N-(3,3,3-trifluoro-2-hydroxy-2-phenylpropyl)pyrimidine-2-carboxamide] | 2.574 µM | 16.7 µM |
| Cc1nc(C(=O)NC(C)c2ncco2)nc(NCCc2cn[nH]c2)c1C (stereo not drawn) [Compound 108, 4-((2-(1H-pyrazol-4-yl)ethyl)amino)-5,6-dimethyl-N-(1-(oxazol-2-yl)ethyl)pyrimidine-2-carboxamide] | 1.7855 µM | 18.1 µM |
| Cc1nc(C(=O)NCc2cccc(F)n2)nc(NCCc2cn[nH]c2)c1C [Compound 55, 4-((2-(1H-pyrazol-4-yl)ethyl)amino)-N-((6-fluoropyridin-2-yl)methyl)-5,6-dimethylpyrimidine-2-carboxamide] | 0.375 µM | 4.68 µM |
| Cc1nc(C(=O)N2CCC(C(F)(F)F)CC2)nc(NCCc2cn[nH]c2)c1C [Compound 119, (4-((2-(1H-pyrazol-4-yl)ethyl)amino)-5,6-dimethylpyrimidin-2-yl)(4-(trifluoromethyl)piperidin-1-yl)methanone] | 32.854 µM | 47.2 µM |
| Cc1nc(C(=O)Nc2cc(F)cc(F)c2)nc(NCCc2cn[nH]c2)c1C [Compound 117, 4-((2-(1H-pyrazol-4-yl)ethyl)amino)-N-(3,5-difluorophenyl)-5,6-dimethylpyrimidine-2-carboxamide] | 2.2385 µM | 47.6 µM |
| Cc1nc(C(=O)N2CCC(C#N)(c3ccccc3)CC2)nc(NCCc2cn[nH]c2)c1C [Compound 96, 1-(4-((2-(1H-pyrazol-4-yl)ethyl)amino)-5,6-dimethylpyrimidine-2-carbonyl)-4-phenylpiperidine-4-carbonitrile] | 1.3075 µM | 8.51 µM |
| Cc1nc(C(=O)NCc2ccccc2)nc(NCCc2cn[nH]c2)c1C [Compound 31, 4-((2-(1H-pyrazol-4-yl)ethyl)amino)-N-benzyl-5,6-dimethylpyrimidine-2-carboxamide] | 0.192 µM | 1.61 µM |
| Cc1nc(C(=O)N2CCOC[C@H]2Cc2ccccc2)nc(NCCc2cn[nH]c2)c1C [Compound 64, (R)-(4-((2-(1H-pyrazol-4-yl)ethyl)amino)-5,6-dimethylpyrimidin-2-yl)(3-benzylmorpholino)methanone] | 0.458 µM | 2.16 µM |
| Cc1nc(C(=O)N[C@H](C)c2ccccn2)nc(NCCc2cn[nH]c2)c1C [Compound 47, (R)-4-((2-(1H-pyrazol-4-yl)ethyl)amino)-5,6-dimethyl-N-(1-(pyridin-2-yl)ethyl)pyrimidine-2-carboxamide] | 0.2915 µM | 2 µM |
| Cc1nc(C(=O)NCC(F)(F)c2ccccc2)nc(NCCc2cn[nH]c2)c1C [Compound 111, 4-((2-(1H-pyrazol-4-yl)ethyl)amino)-N-(2,2-difluoro-2-phenylethyl)-5,6-dimethylpyrimidine-2-carboxamide] | 1.9995 µM | 18.5 µM |
| Cc1nc(C(=O)N[C@H](C)c2ncccc2F)nc(NCCc2cn[nH]c2)c1C [Compound 56, (R)-4-((2-(1H-pyrazol-4-yl)ethyl)amino)-N-(1-(3-fluoropyridin-2-yl)ethyl)-5,6-dimethylpyrimidine-2-carboxamide] | 0.439 µM | 1.37 µM |
| Cc1nc(C(=O)NC(C)(C)c2ccc(F)cc2)nc(NCCc2cn[nH]c2)c1C [Compound 83, 4-((2-(1H-pyrazol-4-yl)ethyl)amino)-N-(2-(4-fluorophenyl)propan-2-yl)-5,6-dimethylpyrimidine-2-carboxamide] | 0.9695 µM | 14.5 µM |
